Read-outs that look alike come from different tables or passages of the source.
What was measured:
SOS1 = SOS1 (Homo sapiens (Human), UniProt Q07889); assay: Ras-SOS interaction assay (HTRF); assay type: biochemical
[1] = system: MIA PaCa-2 cells (K-Ras G12C); assay: Ras-SOS cellular growth inhibition assay (CellTiter-Glo, 3D); assay type: cell-based; details: Homo sapiens
How it was run: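 Growth read by CellTiter-Glo luminescence about 5 days after dosing with 3-fold dilutions (9 points), added one day post-seeding. Cells: MIA PaCa-2, 3D culture on ultra-low-attachment surface, medium DMEM/Ham's F12 plus 10% FCS and 2.5% horse serum; IC50 by four-parameter fit.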

[2] = system: NCI-H1975 cells (EGFR T790M L858R); assay: EGFR-SOS cellular inhibition assay (CellTiter-Glo, 3D); assay type: cell-based; details: Homo sapiens
[3] = K-RasG13D utilized, read-out: IC50 inhibition of SOS
[4] = K-RasG13D, read-out: IC50 value against SOS1
[5] = MIA PaCa-2, 120 h, MIA PaCa-2, 3D proliferation, about 5 days, read-out: Bio-Cell-Prolif-3D (MiaPaca2 IC50)
[6] = 120 h, NCI-H1975, 3D proliferation, about 5 days, read-out: Bio-Cell-Prolif-3D (H1975 IC50)
[7] = MIA PaCa-2, MIA PaCa-2, read-out: IC50 in inhibiting MIA PaCa-2 cell growth
[8] = NCI-H1975, EGFR T790M L858R, read-out: IC50 in inhibiting growth of NCI-H1975 cell line

Chain of SOS1 (Q07889 564-1049): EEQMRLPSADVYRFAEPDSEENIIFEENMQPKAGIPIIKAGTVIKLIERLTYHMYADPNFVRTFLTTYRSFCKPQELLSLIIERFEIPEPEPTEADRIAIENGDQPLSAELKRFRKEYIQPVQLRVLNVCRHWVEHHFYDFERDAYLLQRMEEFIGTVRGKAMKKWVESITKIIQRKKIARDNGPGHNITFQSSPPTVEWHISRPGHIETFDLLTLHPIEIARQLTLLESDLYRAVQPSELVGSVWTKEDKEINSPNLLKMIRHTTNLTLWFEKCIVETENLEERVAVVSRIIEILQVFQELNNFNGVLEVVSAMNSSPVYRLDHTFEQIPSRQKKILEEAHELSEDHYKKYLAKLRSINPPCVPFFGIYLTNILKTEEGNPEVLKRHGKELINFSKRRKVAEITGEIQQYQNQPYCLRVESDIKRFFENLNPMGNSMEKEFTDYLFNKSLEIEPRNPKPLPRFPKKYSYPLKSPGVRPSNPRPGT

IC50 (SOS1; [3])	IC50 (SOS1; [4])	IC50 [1, 5]	IC50 [2, 6]	IC50 [1, 7]	IC50 [2, 8]	Structure (SMILES)
< 100 nM	< 50 nM	≤ 1000 nM	≤ 1000 nM	< 500 nM	< 500 nM	COc1nc2nc(C)nc(N[C@H](C)c3cccc(C(F)(F)CO)c3F)c2cc1C1(C#N)CC1 [Compound 206, (R)-1-(4-((1-(3-(1,1-difluoro-2-hydroxyethyl)-2-fluorophenyl)ethyl)amino)-7-methoxy-2-methylpyrido[2,3-d]pyrimidin-6-yl)cyclopropane-1-carbonitrile]
< 100 nM	< 50 nM	≤ 1000 nM	≤ 1000 nM	< 500 nM	< 500 nM	COc1nc2nc(C)nc(N[C@H](C)c3cccc(C(F)(F)C4CCN(C)CC4)c3F)c2cc1C1(C#N)CC1 [Compound 210, (R)-1-(4-((1-(3-(difluoro(1-methylpiperidin-4-yl)methyl)-2-fluorophenyl)ethyl)amino)-7-methoxy-2-methylpyrido[2,3-d]pyrimidin-6-yl)cyclopropane-1-carbonitrile]
< 100 nM		≤ 1000 nM	≤ 1000 nM			COc1nc2nc(C)nc(N[C@H](C)c3cccc(C(F)(F)F)c3C)c2cc1C1(C#N)CC1 [Compound 213, (R)-1-(7-methoxy-2-methyl-4-((1-(2-methyl-3-(trifluoromethyl)phenyl)ethyl)amino)pyrido[2,3-d]pyrimidin-6-yl)cyclopropane-1-carbonitrile]

The next lines start with the compound.

Structure (SMILES)	IC50 (SOS1; [3])	IC50 (SOS1; [4])	IC50 [1, 5]	IC50 [2, 6]	IC50 [1, 7]	IC50 [2, 8]
COc1nc2nc(OCC3CN(C)C3)nc(N[C@H](C)c3cccc(C(F)F)c3F)c2cc1C1(C#N)CC1 [Compound 203, (R)-1-(4-((1-(3-(difluoromethyl)-2-fluorophenyl)ethyl)amino)-7-methoxy-2-((1-methylazetidin-3-yl)methoxy)pyrido[2,3-d]pyrimidin-6-yl)cyclopropane-1-carbonitrile]	< 100 nM	< 50 nM	1000 to 10000 nM	≤ 1000 nM		
COc1nc2ncnc(N[C@H](C)c3cccc(C(F)(F)CO)c3F)c2cc1N1CCN(C(C)C)CC1 [Compound 204, (R)-2,2-difluoro-2-(2-fluoro-3-(1-((6-(4-isopropylpiperazin-1-yl)-7-methoxypyrido[2,3-d]pyrimidin-4-yl)amino)ethyl)phenyl)ethan-1-ol]	< 100 nM	< 50 nM	≤ 1000 nM	≤ 1000 nM	< 500 nM	< 500 nM
COc1nc2ncnc(N[C@H](C)c3cccc(C(F)(F)CO)c3)c2cc1N1CCN(C(C)C)CC1 [Compound 205, (R)-2,2-difluoro-2-(3-(1-((6-(4-isopropylpiperazin-1-yl)-7-methoxypyrido[2,3-d]pyrimidin-4-yl)amino)ethyl)phenyl)ethan-1-ol]	< 100 nM	< 50 nM	≤ 1000 nM	≤ 1000 nM	< 500 nM	< 500 nM
COc1nc2nc(C)nc(N[C@H](C)c3cccc(C(F)(F)C4(O)CC4)c3F)c2cc1N1CCN(C(C)C)CC1 [Compound 209, (R)-1-(difluoro(2-fluoro-3-(1-((6-(4-isopropylpiperazin-1-yl)-7-methoxy-2-methylpyrido[2,3-d]pyrimidin-4-yl)amino)ethyl)phenyl)methyl)cyclopropan-1-ol]	< 100 nM	< 50 nM	≤ 1000 nM	≤ 1000 nM	< 500 nM	< 500 nM
COc1nc2nc(C)nc(N[C@H](C)c3cccc(C(F)(F)C(C)(C)O)c3)c2cc1C1CCN(C(C)C)CC1 [Compound 212, (R)-1,1-difluoro-1-(3-(1-((6-(1-isopropylpiperidin-4-yl)-7-methoxy-2-methylpyrido[2,3-d]pyrimidin-4-yl)amino)ethyl)phenyl)-2-methylpropan-2-ol]	< 100 nM	< 50 nM	≤ 1000 nM	≤ 1000 nM	< 500 nM	< 500 nM

From patent US11648254B2 (Kumquat Biosciences Inc., priority 2021, dated 2023)
